In patent US12673036B2, “Method of using L-triiodothyronine (T3) for the treatment of tissue hypoxia and sepsis” (UNI-PHARMA KLEON TSETIS PHARMACEUTICAL LABORATORIES S.A., priority 2020, dated 2026):
Like-named read-outs stand apart in the source and are kept apart here.

Experiments:
[1] = system: xenograft models (non-small cell lung, multiple myeloma, breast, glioblastoma, and ovary); settings: cited from earlier work
[2] = system: isolated rat heart; test: Isolated rat heart, prolonged 4 hour hypoxic perfusion ex vivo
Source text: (§1) The isolated rat heart model was used to simulate non-ischemic conditions of tissue hypoxia ex vivo. In this study, rat hearts were only perfused with oxygenated Krebs buffer containing electrolytes and glucose under normothermia. Despite normal perfusion, the organ gradually develops significant dysfunction over hours due to the absence of erythrocytes and hemoglobin that create hypoxic conditions. […] It should be noted that such an increase in LVEDP may lead to pulmonary edema in vivo. Furthermore, the force of contraction was reduced as evident by a 25% decrease in left ventricular developed pressure (LVDP) in Control hearts (FIG. 2).

[3] = system: p38 MAPK; test: p38 MAPK activation in isolated rat heart after 4 hours hypoxic perfusion; settings: after 4 hours of prolonged hypoxic perfusion, p<0.05
Source text: as §1

[4] = system: male C57BL/6N mice; test: Cecal ligation and puncture (CLP) sepsis model; assay type: in vivo
Procedure: The effect of T3 administration in high dosages in the treatment of tissue hypoxia due to microvascular dysfunction occurring in the myocardium, kidneys and liver is evaluated in a sepsis experimental model using male C57BL/6N mice of 10-12 weeks age. The animal studies were carried out in compliance with all necessary regulations in force.
The simulation of the clinical conditions during sepsis leading to tissue hypoxia and microvascular dysfunction is achieved following the most widely used clinical model of cecal ligation and puncture (CLP). In this experimental model, ligation distal to the ileocecal valve (25% of total cecum length) and perforation by a single 21 G puncture is performed under sevoflurane anesthesia causing leakage of fecal contents into the peritoneum, with subsequent polymicrobial bacteremia and sepsis. The perforation of the cecum allows the release of fecal material into the peritoneal cavity to generate an exacerbated immune response induced by polymicrobial infection. In this model, sepsis causes systemic activation of the inflammatory response, microvascular dysfunction, tissue hypoxia, multi-organ failure, and hemodynamic disorder that results in death as in clinical practice.
The animals are supported by subcutaneous fluid administration every 8 hours and administration of buprenorphine 0.1 mg/kg and paracetamol 300 mg/kg, as is the case with septic patients in the intensive care unit (ICU). All animals are closely monitored for their clinical status based on a modified score scale known as the Lipopolysaccharide (LPS) Score Sheet.
The animals divide into 2 groups: the first group receives placebo (placebo group) and the second group receives intraperitoneally a dose of 0.3 μg T3/g of body weight, immediately after surgery (group T3). Based on guidelines for converting doses from experimental animals to equivalent doses in humans (Nair, A B and Jacob S. A simple practice guide for dose conversion between animals and humans. I Basic C/in Pharma 2016, 7: 27-31), the dose of 0.3 μg T3/g of body weight, corresponds roughly to intravenous administration of 7 μg T3/Kg body weight, i.e., from 400 to 600 μg T3 for a patient weighing 60-80 Kg. This dose is very high and beyond any T3 treatment in hypothyroid patients. The study is performed in two separate experiments. In the first experimental protocol, the clinical condition of the animals and mortality after 72 hours is examined, while in the second experimental protocol, tissue hypoxia at the cellular level after euthanasia at 18 hours is studied.
Initially, lactate levels in blood samples are measured (using L-lactate assay kit from Sigma-Aldrich, MAK329) as a general indicator of hypoxia, which is also commonly used in clinical practice in patients with sepsis. Furthermore, creatinine levels in blood are measured as an indicator of renal function (using the Mouse Creatinine Kit Cat. 80350, Crystal Chem). Finally, an echocardiographic analysis is performed in order to evaluate the end-diastolic and end-systolic volume, the ejection fraction and the pulse volume according to the Simpson rule.
Echocardiographic analysis was performed after mild anesthesia with sevoflurane (0.8%) and placing the animal in a heated blanket. Echocardiographic images were then taken along the longitudinal and transverse sternal axis with the Vivid 7 version Pro ultrasound system (GE Healthcare, Wauwatosa, Wisconsin), equipped with a 14.0-MHz probe (i13L).
Tissue hypoxia at the cellular level is determined in frozen fixed tissues in 4% paraformaldehyde based on the standard method of pimonidazole administration using the Hypoxyprobe™ Plus kit. Pimonidazole is dissolved and administered intravenously in mice at a dose of 60 mg/kg, 2 hours before euthanasia. After intracardiac infusion with paraformaldehyde, the organs are fixed, removed and dehydrated for 5 days in 30% sucrose solution. […]

[5] = system: sepsis; settings: rat sepsis models; cited from earlier work
[6] = system: p38 MAPK; settings: T3 40 μg/L, P<0.05, cited from earlier work
[7] = system: patients with non-ST-segment elevation myocardial infarction; settings: patients with NSTEMI; cited from earlier work
[8] = 40 μg/L after first 30 min of hypoxic perfusion, 4 hours
[9] = 18 hours after sepsis induction

Q: With `CC(C)(C)Cn1c(N)nc2ccc(-c3[nH]c(C(C)(C)C)nc3-c3ccc(F)cc3)nc21` [Ralimetinib] as the molecule, how does the “antineoplastic activity as a single agent” value [1] read?
A: demonstrated antineoplastic activity

Q: For `N[C@@H](Cc1cc(I)c(Oc2ccc(O)c(I)c2)c(I)c1)C(=O)O` [T3, L-triiodothyronine], which diastolic dysfunction [2, 8] is on record?
A: attenuated diastolic dysfunction

Q: And the “left ventricular end-diastolic pressure (LVEDP)” value [2, 8]?
A: maintained LVEDP at normal values

Q: And the “force of contraction (left ventricular developed pressure, LVDP)” value ([2]; 40 μg/L, after 4 hours)?
A: improved force of contraction

Q: And the “perfusion pressure of coronary vessels (microvascular dysfunction)” value ([2]; after 4 hours hypoxic perfusion)?
A: lower perfusion pressure

Q: And the “prevention of p38 MAPK activation” value [3]?
A: 3 fold

Q: What about the creatinine levels ([4]; 18 hours after sepsis) of the same molecule?
A: did not increase

Q: What about the “hepatic tissue hypoxia (pimonidazole)” value ([4]; 18 hours after sepsis) of the same molecule?
A: statistically significant reduction

Q: And the “renal tissue hypoxia (pimonidazole) in OSOM and ISOM” value ([4]; 18 hours after sepsis)?
A: significantly reduce

Q: And the “ejection fraction (echocardiography)” value [4, 9]?
A: within normal range

Q: What about the “pulse volume (echocardiography)” value [4, 9] of the same molecule?
A: within normal range

Q: And the “lactic acid levels in blood” value ([4]; 18 hours after sepsis, 0.3 μg T3/g i.p.)?
A: decrease

Q: And the “myocardial tissue hypoxia, pimonidazole-positive tissue of the left ventricular total tissue” value ([4]; 18 hours, p=0.028 vs placebo)?
A: 1.5%±0.5

Q: What about the “lactic acid levels in blood” value ([4]; 24 hours after sepsis, 0.3 μg T3/g i.p.) of the same molecule?
A: decrease

Q: And the animals surviving ([4]; 72 hours after CLP, 0.3 μg T3/g i.p.)?
A: up to 20%

Q: And the heart rate ([4]; after sepsis induction)?
A: within normal range

Q: And the cytokine storm [5]?
A: reduce cytokine storm

Q: And the “lung function and surfactant synthesis” value [5]?
A: maintain lung function and surfactant synthesis

Q: And the survival [5]?
A: improve survival

Q: What about the “phospho-p38 MAPK levels, less than control” value ([6]; after 5 minutes of reperfusion) of the same molecule?
A: 2.3 fold

Q: And the “phospho-p38 MAPK levels, less than control” value ([6]; after 15 minutes of reperfusion)?
A: 2.1 fold

Q: For `Cc1c(F)cc(C(=O)NC2CC2)cc1-c1ccc(C(=O)NCC(C)(C)C)cn1` [Losmapimod], which myocardial protective effects [7] is on record?
A: presented myocardial protective effects
